Data taken from US10738028B2, “Spiro three-membered ring, spiro five-membered ring peptide deformylase inhibitor and use thereof in antibacteria and anti-tumor” (priority 2016, dated 2020).

What was measured:
Type in all cases: cell-based
[1] = tested on: HCT-116 colorectal cancer cell line; test: CCK-8 proliferation inhibition; conditions: Homo sapiens, HCT-116, 72 h, concentration of 30 μM; 72 hours; CCK-8; read-out: HCT116 inhibition rate/%
Summary of the method: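 2000 cells/well, McCoy's 5A + 10% newborn bovine serum; overnight attach, 37° C./5% CO2. Cpd from DMSO stock diluted in medium, 72 h. Readout: CCK-8 (1:10). Ctrl 1‰ DMSO.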

[2] = tested on: Escherichia coli (including ESBLs, non-ESBLs); test: MIC, two-fold agar dilution (CLSI), clinical isolates
Summary of the method: (§1)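 Test samples were assayed by the CLSI-recommended two-fold agar dilution method, and the minimum inhibitory concentration against each tested strain was determined.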

[3] = tested on: Enterococcus faecalis (EFA); test: as above
Summary of the method: as §1

[4] = tested on: methicillin-sensitive Staphylococcus aureus (MSSA); test: as above
Summary of the method: as §1

[5] = tested on: methicillin-sensitive Staphylococcus epidermidis (MSSE); test: as above
Summary of the method: as §1

[6] = tested on: Streptococcus pneoumoniae (SPN); test: as above
Summary of the method: as §1

[7] = tested on: Enterococcus faecium (EFM); test: as above
Summary of the method: as §1

[8] = tested on: Moraxella catarrhalis (BCA); test: as above
Summary of the method: as §1

[9] = tested on: methicillin-resistant Staphylococcus aureus (MRSA); test: as above
Summary of the method: as §1

[10] = tested on: methicillin-resistant Staphylococcus epidermidis (MRSE); test: as above
Summary of the method: as §1

CCCC[C@H](CC(=O)NO)C(=O)N1CC2(CC2)C[C@H]1C(=O)Nc1cccnn1 [Example 48, (S)-5-((R)-2-(2-(hydroxyamino)-2-oxoethyl)hexanoyl)-N-(pyridazin-3-yl)-5-azaspiro[2.4]heptane-6-amide]
20%: inhibition at 30 µM [1]
2 µg/mL: Anti-bacterial activity (MIC), strain MRSA 15-1 ([9]; clinical isolate MRSA 15-1) | Anti-bacterial activity (MIC), strain MRSA 15-3 ([9]; clinical isolate MRSA 15-3)
1 µg/mL: Anti-bacterial activity (MIC), strain EFM 15-5 ([7]; clinical isolate EFM 15-5)
8 µg/mL: Anti-bacterial activity (MIC), strain ECO+ 15-1 ([2]; clinical isolate ECO+ 15-1) | Anti-bacterial activity (MIC), strain MSSA 15-3 ([4]; clinical isolate MSSA 15-3) | Anti-bacterial activity (MIC), strain MSSA 15-4 ([4]; clinical isolate MSSA 15-4) | Anti-bacterial activity (MIC), strain MSSA 15-5 ([4]; clinical isolate MSSA 15-5) | Anti-bacterial activity (MIC), strain MSSE 15-3 ([5]; clinical isolate MSSE 15-3) | Anti-bacterial activity (MIC), strain MSSE 15-5 ([5]; clinical isolate MSSE 15-5) | Anti-bacterial activity (MIC), strain MSSE 15-6 ([5]; clinical isolate MSSE 15-6) | Anti-bacterial activity (MIC), strain SPN 16-2 ([6]; clinical isolate SPN 16-2) | Anti-bacterial activity (MIC), strain SPN 16-4 ([6]; clinical isolate SPN 16-4) | Anti-bacterial activity (MIC), strain EFM 15-6 ([7]; clinical isolate EFM 15-6) | Anti-bacterial activity (MIC), strain BCA 14-5 ([8]; clinical isolate BCA 14-5) | Anti-bacterial activity (MIC), strain MRSA 15-2 ([9]; clinical isolate MRSA 15-2) | Anti-bacterial activity (MIC), strain MRSA 15-4 ([9]; clinical isolate MRSA 15-4) | Anti-bacterial activity (MIC), strain MRSE 15-1 ([10]; clinical isolate MRSE 15-1) | Anti-bacterial activity (MIC), strain MRSE 15-2 ([10]; clinical isolate MRSE 15-2) | Anti-bacterial activity (MIC), strain MRSE 15-3 ([10]; clinical isolate MRSE 15-3) | Anti-bacterial activity (MIC), strain MRSE 15-7 ([10]; clinical isolate MRSE 15-7)
16 µg/mL: Anti-bacterial activity (MIC), strain BCA 14-7 ([8]; clinical isolate BCA 14-7) | Anti-bacterial activity (MIC), strain BCA 14-8 ([8]; clinical isolate BCA 14-8)
> 32 µg/mL: Anti-bacterial activity (MIC), strain ECO+ 15-2 ([2]; clinical isolate ECO+ 15-2) | Anti-bacterial activity (MIC), strain ECO− 15-1 ([2]; clinical isolate ECO− 15-1) | Anti-bacterial activity (MIC), strain ECO− 15-2 ([2]; clinical isolate ECO− 15-2) | Anti-bacterial activity (MIC), strain ECO− 15-3 ([2]; clinical isolate ECO− 15-3) | Anti-bacterial activity (MIC), strain ECO− 15-4 ([2]; clinical isolate ECO− 15-4) | Anti-bacterial activity (MIC), strain EFA 15-1 ([3]; clinical isolate EFA 15-1) | Anti-bacterial activity (MIC), strain EFA 15-2 ([3]; clinical isolate EFA 15-2) | Anti-bacterial activity (MIC), strain EFA 15-3 ([3]; clinical isolate EFA 15-3) | Anti-bacterial activity (MIC), strain EFA 15-4 ([3]; clinical isolate EFA 15-4) | Anti-bacterial activity (MIC), strain EFA 15-5 ([3]; clinical isolate EFA 15-5) | Anti-bacterial activity (MIC), strain EFA 15-6 ([3]; clinical isolate EFA 15-6) | Anti-bacterial activity (MIC), strain MSSA 15-6 ([4]; clinical isolate MSSA 15-6) | Anti-bacterial activity (MIC), strain EFM 15-1 ([7]; clinical isolate EFM 15-1) | Anti-bacterial activity (MIC), strain EFM 15-2 ([7]; clinical isolate EFM 15-2) | Anti-bacterial activity (MIC), strain EFM 15-3 ([7]; clinical isolate EFM 15-3) | Anti-bacterial activity (MIC), strain EFM 15-4 ([7]; clinical isolate EFM 15-4) | Anti-bacterial activity (MIC), strain BCA 14-1 ([8]; clinical isolate BCA 14-1) | Anti-bacterial activity (MIC), strain BCA 14-4 ([8]; clinical isolate BCA 14-4) | Anti-bacterial activity (MIC), strain BCA 14-6 ([8]; clinical isolate BCA 14-6) | Anti-bacterial activity (MIC), strain BCA 14-10 ([8]; clinical isolate BCA 14-10)
32 µg/mL: Anti-bacterial activity (MIC), strain ECO+ 15-3 ([2]; clinical isolate ECO+ 15-3) | Anti-bacterial activity (MIC), strain ECO+ 15-4 ([2]; clinical isolate ECO+ 15-4) | Anti-bacterial activity (MIC), strain EFA 15-9 ([3]; clinical isolate EFA 15-9) | Anti-bacterial activity (MIC), strain MSSE 15-4 ([5]; clinical isolate MSSE 15-4)
